Data: patent US20250145665A1, “MACROCYCLIC PEPTIDES USEFUL AS MODULATORS OF TNF ALPHA” (Bristol-Myers Squibb Company, priority 2023, published 2025)
Read-outs that look alike come from different tables or passages of the source. Starred links: 1 amine or outer side, 2 acyl side, 3 side chain; linkers in the order of their positions; H or OH if unused. Positions of bridges follow the written chain, without caps; N, C: chain ends. Non-standard residues stand in square brackets, D forms with d. Residues, ends and D or L forms follow the SMILES beside them. Ala(morpholin-4-yl) = N[C@@H](CN1CCOCC1)C(=O)O; X59 = O=C([C@H](Cc1c(F)cc(F)cc1F)N[*:1])[*:2]; Phe(4-CH2NH2) = NCc1ccc(C[C@H](N)C(=O)O)cc1; Bip = N[C@@H](Cc1ccc(-c2ccccc2)cc1)C(=O)O; Phe(4-F) = N[C@@H](Cc1ccc(F)cc1)C(=O)O; Val(3-OH) = CC(C)(O)[C@H](N)C(=O)O; h4Pal = N[C@@H](CCc1ccncc1)C(=O)O; 2Pal = N[C@@H](Cc1ccccn1)C(=O)O; 3Pal = N[C@@H](Cc1cccnc1)C(=O)O; 4Pal = N[C@@H](Cc1ccncc1)C(=O)O; hLeu = CC(C)CC[C@H](N)C(=O)O; Hpra = C#CCC[C@H](N)C(=O)O; Sar = CNCC(=O)O

Target: TNFα (Homo sapiens, UniProt P01375)
Experiment: TNF-Induced HEK-Blue Assay
Format: cell-based
[1] = HEK-Blue-CD40L cells, NF-kB-driven secreted alkaline phosphatase reporter, TNFα 0.5 ng/ml, 18 h, read-out: TNF induced HEK-Blue assay IC50 value

TNFα, sequence (P01375 77-233 limits assumed): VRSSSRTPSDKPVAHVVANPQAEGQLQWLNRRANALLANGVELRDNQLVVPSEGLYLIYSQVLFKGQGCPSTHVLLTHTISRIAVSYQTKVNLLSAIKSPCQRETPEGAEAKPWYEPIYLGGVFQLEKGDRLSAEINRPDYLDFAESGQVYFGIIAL
Procedure: TNFα (final concentration 0.5 ng/ml) or CD40L (final concentration 30 ng/ml) in assay buffer [DMEM, 4.5 g/l glucose (Gibco, Cat. 21063-029), 10% FBS (Sigma, F4135), 1% Penicillin-Streptomycin (Gibco, Cat. 15140-122), 1% Anti-Anti (Gibco, Cat. 15240-112) and 2 mM L-glutamine (Gibco, Cat. 25030-081)] was then added to the assay plate. After a 30 minute pre-incubation at 37° C. and 5% CO2, HEK-Blue™-CD40L cells (INVIVOGEN, Cat. Code hkb-cd40) containing a NF-kB-driven secreted alkaline phosphatase reporter gene were seeded into the assay plate at a density of 20,000 cells per well. This plate was then incubated for 18 h at 37° C. and 5% CO2. Secreted alkaline phosphatase expression was measured using QUANTI-Blue™ (INVIVOGEN, Cat. Code rep-qb1) according to manufacturer's specifications and the assay plate was read on a PerkinElmer Envision at 620 nm.
IC50 values were determined after correcting for background [(sample read-mean of low control)/(mean of high control-mean of low control)] where by the low control is DMSO without stimulation and high control is DMSO with stimulation.

SMILES	IC50 [1]	IC50
CC(C)C[C@@H]1NC(=O)[C@H](CCCNC(=N)N)NC(=O)[C@H](C(C)C)NC(=O)CN(C)C(=O)[C@H](C(C)C)NC(=O)[C@H](CCCNC(=N)N)NC(=O)[C@H](CC(=O)O)NC(=O)[C@@H]2CCCN2C(=O)CN(C)C(=O)[C@H](Cc2ccc(-c3ccccc3)cc2)NC(=O)[C@H](Cc2ccc(-c3ccccc3)cc2)NC(=O)[C@H](Cc2ccccc2)NC(=O)CSC[C@@H](C(=O)NCC(N)=O)NC1=O [Example 16] ({CH2CO}-F[Bip][Bip][Sar]PDRV[Sar]VRLCG-NH2; thioether N-13)	0.2 to 2 µM	
CC(C)C[C@@H]1NC(=O)[C@H](CCCNC(=N)N)NC(=O)[C@H](C(C)C)NC(=O)[C@H](C(C)C)NC(=O)[C@H](C(C)C)NC(=O)[C@H](CCCNC(=N)N)NC(=O)[C@H](CC(=O)O)NC(=O)[C@@H]2CCCN2C(=O)CN(C)C(=O)[C@H](Cc2ccc(-c3ccccc3)cc2)NC(=O)[C@H](Cc2ccc(-c3ccccc3)cc2)NC(=O)[C@H](Cc2ccccc2)NC(=O)CSC[C@@H](C(=O)NCC(N)=O)NC1=O [Example 17] ({CH2CO}-F[Bip][Bip][Sar]PDRVVVRLCG-NH2; thioether N-13)	0.2 to 2 µM	
CC(C)C[C@@H]1NC(=O)[C@H](CCC(N)=O)NC(=O)[C@H](C(C)C)NC(=O)[C@@H]2CCCN2C(=O)[C@H](C(C)C)NC(=O)[C@H](CCCNC(=N)N)NC(=O)[C@H](CC(=O)O)NC(=O)[C@@H]2CCCN2C(=O)CN(C)C(=O)[C@H](Cc2ccc(-c3ccccc3)cc2)NC(=O)[C@H](Cc2ccc(-c3ccccc3)cc2)NC(=O)[C@H](Cc2ccccc2)NC(=O)CSC[C@@H](C(=O)NCC(N)=O)NC1=O [Example 18] ({CH2CO}-F[Bip][Bip][Sar]PDRVPVQLCG-NH2; thioether N-13)	0.2 to 2 µM	
CC[C@H](C)[C@@H]1NC(=O)[C@H](C(C)C)NC(=O)[C@@H]2CCCN2C(=O)[C@H](C(C)C)NC(=O)[C@H](CCCNC(=N)N)NC(=O)[C@H](CC(=O)O)NC(=O)[C@H](Cc2ccc(O)cc2)NC(=O)CN(C)C(=O)[C@H](Cc2ccc(-c3ccccc3)cc2)NC(=O)[C@H](Cc2ccc(-c3ccccc3)cc2)NC(=O)[C@H](Cc2ccccc2)NC(=O)CSC[C@@H](C(=O)NCC(N)=O)NC(=O)[C@H](CC(C)C)NC1=O [Example 19] ({CH2CO}-F[Bip][Bip][Sar]YDRVPVILCG-NH2; thioether N-13)	0.2 to 2 µM	
CC[C@H](C)[C@@H]1NC(=O)[C@@H]2CCCN2C(=O)[C@H](C(C)C)NC(=O)[C@H](CCCNC(=N)N)NC(=O)[C@H](CC(=O)O)NC(=O)[C@@H]2CCCN2C(=O)CN(C)C(=O)[C@H](Cc2ccc(-c3ccccc3)cc2)NC(=O)[C@H](Cc2ccc(-c3ccccc3)cc2)NC(=O)[C@H](Cc2ccccc2)NC(=O)CSC[C@@H](C(=O)NCC(N)=O)NC(=O)[C@H](CC(C)C)NC(=O)[C@H](CCCNC(=N)N)NC1=O [Example 20] ({CH2CO}-F[Bip][Bip][Sar]PDRVPIRLCG-NH2; thioether N-13)		0.2 to 2 µM
CC(C)C[C@@H]1NC(=O)[C@H](CCCNC(=N)N)NC(=O)[C@H](CC(C)C)NC(=O)[C@@H]2CCCN2C(=O)[C@H](C(C)C)NC(=O)[C@H](CCCNC(=N)N)NC(=O)[C@H](CC(=O)O)NC(=O)[C@@H]2CCCN2C(=O)CN(C)C(=O)[C@H](Cc2ccc(-c3ccccc3)cc2)NC(=O)[C@H](Cc2ccc(-c3ccccc3)cc2)NC(=O)[C@H](Cc2ccccc2)NC(=O)CSC[C@@H](C(=O)NCC(N)=O)NC1=O [Example 21] ({CH2CO}-F[Bip][Bip][Sar]PDRVPLRLCG-NH2; thioether N-13)	0.2 to 2 µM	
CC(C)C[C@@H]1NC(=O)[C@H](CCCNC(=N)N)NC(=O)[C@H](C(C)C)NC(=O)[C@@H]2CCCN2C(=O)[C@H](Cc2ccc(CN)cc2)NC(=O)[C@H](CCCNC(=N)N)NC(=O)[C@H](CC(=O)O)NC(=O)[C@@H]2CCCN2C(=O)CN(C)C(=O)[C@H](Cc2ccc(-c3ccccc3)cc2)NC(=O)[C@H](Cc2ccc(-c3ccccc3)cc2)NC(=O)[C@H](Cc2ccccc2)NC(=O)CSC[C@@H](C(=O)NCC(N)=O)NC1=O [Example 22] ({CH2CO}-F[Bip][Bip][Sar]PDR[Phe(4-CH2NH2)]PVRLCG-NH2; thioether N-13)	0.2 to 2 µM	
CC(C)C[C@@H]1NC(=O)[C@H](CCCNC(=N)N)NC(=O)[C@H](C(C)C)NC(=O)[C@@H]2CCCN2C(=O)[C@H](Cc2ccc(F)cc2)NC(=O)[C@H](CCCNC(=N)N)NC(=O)[C@H](CC(=O)O)NC(=O)[C@@H]2CCCN2C(=O)CN(C)C(=O)[C@H](Cc2ccc(-c3ccccc3)cc2)NC(=O)[C@H](Cc2ccc(-c3ccccc3)cc2)NC(=O)[C@H](Cc2ccccc2)NC(=O)CSC[C@@H](C(=O)NCC(N)=O)NC1=O [Example 23] ({CH2CO}-F[Bip][Bip][Sar]PDR[Phe(4-F)]PVRLCG-NH2; thioether N-13)	0.2 to 2 µM	
CC(C)C[C@@H]1NC(=O)[C@H](CCCNC(=N)N)NC(=O)[C@H](C(C)C)NC(=O)[C@@H]2CCCN2C(=O)[C@H](CCc2ccncc2)NC(=O)[C@H](CCCNC(=N)N)NC(=O)[C@H](CC(=O)O)NC(=O)[C@@H]2CCCN2C(=O)CN(C)C(=O)[C@H](Cc2ccc(-c3ccccc3)cc2)NC(=O)[C@H](Cc2ccc(-c3ccccc3)cc2)NC(=O)[C@H](Cc2ccccc2)NC(=O)CSC[C@@H](C(=O)NCC(N)=O)NC1=O [Example 24] ({CH2CO}-F[Bip][Bip][Sar]PDR[h4Pal]PVRLCG-NH2; thioether N-13)	0.2 to 2 µM	
CC(C)C[C@@H]1NC(=O)[C@H](CCCNC(=N)N)NC(=O)[C@H](C(C)C)NC(=O)[C@@H]2CCCN2C(=O)[C@H](Cc2ccncc2)NC(=O)[C@H](CCCNC(=N)N)NC(=O)[C@H](CC(=O)O)NC(=O)[C@@H]2CCCN2C(=O)CN(C)C(=O)[C@H](Cc2ccc(-c3ccccc3)cc2)NC(=O)[C@H](Cc2ccc(-c3ccccc3)cc2)NC(=O)[C@H](Cc2ccccc2)NC(=O)CSC[C@@H](C(=O)NCC(N)=O)NC1=O [Example 25] ({CH2CO}-F[Bip][Bip][Sar]PDR[4Pal]PVRLCG-NH2; thioether N-13)	0.2 to 2 µM	
CC(C)C[C@@H]1NC(=O)[C@H](CCCNC(=N)N)NC(=O)[C@H](C(C)C)NC(=O)[C@@H]2CCCN2C(=O)[C@H](Cc2cccnc2)NC(=O)[C@H](CCCNC(=N)N)NC(=O)[C@H](CC(=O)O)NC(=O)[C@@H]2CCCN2C(=O)CN(C)C(=O)[C@H](Cc2ccc(-c3ccccc3)cc2)NC(=O)[C@H](Cc2ccc(-c3ccccc3)cc2)NC(=O)[C@H](Cc2ccccc2)NC(=O)CSC[C@@H](C(=O)NCC(N)=O)NC1=O [Example 26] ({CH2CO}-F[Bip][Bip][Sar]PDR[3Pal]PVRLCG-NH2; thioether N-13)	0.2 to 2 µM	
CC(C)C[C@@H]1NC(=O)[C@H](CCCNC(=N)N)NC(=O)[C@H](C(C)C)NC(=O)[C@@H]2CCCN2C(=O)[C@H](C(C)C)NC(=O)[C@H](CCCNC(=N)N)NC(=O)[C@H](CC(=O)O)NC(=O)[C@@H]2CCCN2C(=O)CN(C)C(=O)[C@H](Cc2ccc(-c3ccccc3)cc2)NC(=O)[C@H](Cc2ccc(-c3ccccc3)cc2)NC(=O)[C@H](C(C)(C)O)NC(=O)CSC[C@@H](C(=O)NCC(N)=O)NC1=O [Example 27] ({CH2CO}-[Val(3-OH)][Bip][Bip][Sar]PDRVPVRLCG-NH2; thioether N-13)	0.05 to 0.2 µM	
CC(C)CC[C@@H]1NC(=O)CSC[C@@H](C(=O)NCC(N)=O)NC(=O)[C@H](CC(C)C)NC(=O)[C@H](CCCNC(=N)N)NC(=O)[C@H](C(C)C)NC(=O)[C@@H]2CCCN2C(=O)[C@H](C(C)C)NC(=O)[C@H](CCCNC(=N)N)NC(=O)[C@H](CC(=O)O)NC(=O)[C@@H]2CCCN2C(=O)CN(C)C(=O)[C@H](Cc2ccc(-c3ccccc3)cc2)NC(=O)[C@H](Cc2ccc(-c3ccccc3)cc2)NC1=O [Example 28] ({CH2CO}-[hLeu][Bip][Bip][Sar]PDRVPVRLCG-NH2; thioether N-13)	0.2 to 2 µM	
CC(C)C[C@@H]1NC(=O)[C@H](CCCNC(=N)N)NC(=O)[C@H](C(C)C)NC(=O)[C@@H]2CCCN2C(=O)[C@H](C(C)C)NC(=O)[C@H](CCCNC(=N)N)NC(=O)[C@H](CC(=O)O)NC(=O)[C@@H]2CCCN2C(=O)CN(C)C(=O)[C@H](Cc2ccc(-c3ccccc3)cc2)NC(=O)[C@H](Cc2ccc(-c3ccccc3)cc2)NC(=O)[C@H](Cc2cccnc2)NC(=O)CSC[C@@H](C(=O)NCC(N)=O)NC1=O [Example 29] ({CH2CO}-[3Pal][Bip][Bip][Sar]PDRVPVRLCG-NH2; thioether N-13)	0.2 to 2 µM	
CC(C)C[C@@H]1NC(=O)[C@H](CCCNC(=N)N)NC(=O)[C@H](C(C)C)NC(=O)[C@@H]2CCCN2C(=O)[C@H](C(C)C)NC(=O)[C@H](CCCNC(=N)N)NC(=O)[C@H](CC(=O)O)NC(=O)[C@@H]2CCCN2C(=O)CN(C)C(=O)[C@H](Cc2ccc(-c3ccccc3)cc2)NC(=O)[C@H](Cc2ccc(-c3ccccc3)cc2)NC(=O)[C@H](Cc2ccccn2)NC(=O)CSC[C@@H](C(=O)NCC(N)=O)NC1=O [Example 30] ({CH2CO}-[2Pal][Bip][Bip][Sar]PDRVPVRLCG-NH2; thioether N-13)	0.2 to 2 µM	
CC(C)C[C@@H]1NC(=O)[C@H](CCCNC(=N)N)NC(=O)[C@H](C(C)C)NC(=O)[C@@H]2CCCN2C(=O)[C@H](C(C)C)NC(=O)[C@H](CCCNC(=N)N)NC(=O)[C@H](CC(=O)O)NC(=O)[C@@H]2CCCN2C(=O)CN(C)C(=O)[C@H](Cc2ccc(-c3ccccc3)cc2)NC(=O)[C@H](Cc2ccc(-c3ccccc3)cc2)NC(=O)[C@H](Cc2c(F)cc(F)cc2F)NC(=O)CSC[C@@H](C(=O)NCC(N)=O)NC1=O [Example 31] ({CH2CO}-[X59][Bip][Bip][Sar]PDRVPVRLCG-NH2; thioether N-13)	0.2 to 2 µM	
CC(C)C[C@@H]1NC(=O)[C@H](CCCNC(=N)N)NC(=O)[C@H](C(C)C)NC(=O)[C@@H]2CCCN2C(=O)[C@H](C(C)C)NC(=O)[C@H](CCCNC(=N)N)NC(=O)[C@H](CC(=O)O)NC(=O)[C@@H]2CCCN2C(=O)CN(C)C(=O)[C@H](Cc2ccc(-c3ccccc3)cc2)NC(=O)[C@H](Cc2ccc(-c3ccccc3)cc2)NC(=O)[C@H](CN2CCOCC2)NC(=O)CSC[C@@H](C(=O)NCC(N)=O)NC1=O [Example 32] ({CH2CO}-[Ala(morpholin-4-yl)][Bip][Bip][Sar]PDRVPVRLCG-NH2; thioether N-13)	0.05 to 0.2 µM	
C#CCC[C@@H]1NC(=O)[C@H](CCCNC(=N)N)NC(=O)[C@H](CC(=O)O)NC(=O)[C@@H]2CCCN2C(=O)CN(C)C(=O)[C@H](Cc2ccc(-c3ccccc3)cc2)NC(=O)[C@H](Cc2ccc(-c3ccccc3)cc2)NC(=O)[C@H](Cc2ccccc2)NC(=O)CSC[C@@H](C(=O)NCC(N)=O)NC(=O)[C@H](CC(C)C)NC(=O)[C@H](CCCNC(=N)N)NC(=O)[C@H](C(C)C)NC(=O)[C@@H]2CCCN2C1=O [Example 33] ({CH2CO}-F[Bip][Bip][Sar]PDR[Hpra]PVRLCG-NH2; thioether N-13)	0.2 to 2 µM	
